Values joined by “and” are separate entries in the source; they are usually repeats but may differ in a detail not shown here. Identical values can stand only once. Toxic doses and inconclusive results are not listed. The calls were made as follows: active = survival T/C of 150% or more; inactive = T/C below 125% in these data.
Tested on: CD2F1 mice, L1210 leukemia ip, survival T/C
Assay: NCI In Vivo Anticancer Drug Screen. Data for tumor model L1210 Leukemia (intraperitoneal) in CD2F1 (CDF1) mice
Details: higher = longer survival
Procedure, shortened: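 Antitumor effect is scored in animals hosting a serially transplanted tumor. Values compare compound-dosed animals against vehicle-only controls as a simple quotient.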

[1] = endpoint: mean survival time, dose: 100.0 mg/kg/injection, schedule: Q01DX001 (ip), vehicle: saline with Tween-80
[2] = endpoint: mean survival time, dose: 200.0 mg/kg/injection, schedule: Q01DX001 (ip), vehicle: saline with Tween-80
[3] = endpoint: mean survival time, dose: 100.0 mg/kg/injection, schedule: Q04DX003 (ip), vehicle: saline with Tween-80
[4] = endpoint: mean survival time, dose: 200.0 mg/kg/injection, schedule: Q04DX003 (ip), vehicle: saline with Tween-80
[5] = endpoint: mean survival time, dose: 400.0 mg/kg/injection, schedule: Q04DX003 (ip), vehicle: saline with Tween-80
[6] = endpoint: mean survival time, dose: 100.0 mg/kg/injection, schedule: Q01DX009 (ip), vehicle: saline with Tween-80
[7] = endpoint: mean survival time, dose: 200.0 mg/kg/injection, schedule: Q01DX009 (ip), vehicle: saline with Tween-80
[8] = endpoint: mean survival time, dose: 400.0 mg/kg/injection, schedule: Q01DX001 (ip), vehicle: saline with Tween-80
[9] = endpoint: mean survival time, dose: 400.0 mg/kg/injection, schedule: Q01DX009 (ip), vehicle: saline with Tween-80
[10] = endpoint: mean survival time, dose: 50.0 mg/kg/injection, schedule: Q01DX009 (ip), vehicle: saline with Tween-80
[11] = endpoint: mean survival time, dose: 100.0 mg/kg/injection, schedule: Q01DX009 (ip), vehicle: saline
[12] = endpoint: mean survival time, dose: 200.0 mg/kg/injection, schedule: Q01DX009 (ip), vehicle: saline
[13] = endpoint: mean survival time, dose: 50.0 mg/kg/injection, schedule: Q01DX001 (ip), vehicle: saline with Tween-80
[14] = endpoint: mean survival time, dose: 100.0 mg/kg/injection, schedule: Q01DX009 (ip), vehicle: Klucel (hydroxypropylcellulose) (HPC)
[15] = endpoint: mean survival time, dose: 200.0 mg/kg/injection, schedule: Q01DX009 (ip), vehicle: Klucel (hydroxypropylcellulose) (HPC)
[16] = endpoint: mean survival time, dose: 100.0 mg/kg/injection, schedule: Q04DX003 (ip), vehicle: saline
[17] = endpoint: mean survival time, dose: 200.0 mg/kg/injection, schedule: Q04DX003 (ip), vehicle: saline
[18] = endpoint: mean survival time, dose: 400.0 mg/kg/injection, schedule: Q04DX003 (ip), vehicle: saline

Measured: T/C

COc1ccccc1-n1c(O)c(N=Nc2ccccc2)c(=O)n(-c2ccccc2OC)c1=S
inactive: [1] 105 % of control | [2] 102 % of control

N#CCCOS(=O)(=O)c1cccc([N+](=O)[O-])c1
inactive: [3] 98 % of control | [4] 101 % of control | [5] 93 % of control

OCC1OC(Nc2ncnc3nc[nH]c23)C(O)C1O (configuration not stated)
inactive: [1] 108 % of control | [6] 96 % of control | [2] 94 % of control | [7] 108 % of control | [8] 92 % of control | [9] 100 % of control

O=S(=O)(Cc1ccccc1)CS(=O)(=O)Cc1ccccc1
inactive: [1] 98 % of control | [2] 97 % of control | [8] 86 % of control

NNC(=S)N/N=C/c1ccccn1
inactive: endpoint: mean survival time, dose: 1.56 mg/kg/injection, schedule: Q01DX009 (ip), vehicle: saline 93 % of control and 98 % of control | endpoint: mean survival time, dose: 3.12 mg/kg/injection, schedule: Q01DX009 (ip), vehicle: saline 98 % of control and 100 % of control | endpoint: mean survival time, dose: 6.25 mg/kg/injection, schedule: Q01DX009 (ip), vehicle: saline with Tween-80 105 % of control | endpoint: mean survival time, dose: 6.25 mg/kg/injection, schedule: Q01DX009 (ip), vehicle: saline 115 % of control | endpoint: mean survival time, dose: 6.25 mg/kg/injection, schedule: Q04DX003 (ip), vehicle: saline with Tween-80 118 % of control | endpoint: mean survival time, dose: 6.3 mg/kg/injection, schedule: Q01DX009 (oral), vehicle: saline 92 % of control | endpoint: mean survival time, dose: 12.5 mg/kg/injection, schedule: Q01DX009 (oral), vehicle: saline 98 % of control | endpoint: mean survival time, dose: 12.5 mg/kg/injection, schedule: Q04DX003 (ip), vehicle: saline with Tween-80 98 % of control | endpoint: mean survival time, dose: 25.0 mg/kg/injection, schedule: Q04DX003 (ip), vehicle: saline with Tween-80 102 % of control

Cc1cc(=O)c2ccccc2n1C
inactive: endpoint: mean survival time, dose: 5.0 mg/kg/injection, schedule: Q04DX002 (ip), vehicle: saline 98 % of control | endpoint: mean survival time, dose: 10.0 mg/kg/injection, schedule: Q04DX002 (ip), vehicle: saline 98 % of control | endpoint: mean survival time, dose: 20.0 mg/kg/injection, schedule: Q04DX002 (ip), vehicle: saline 98 % of control

CCCCN1C(=O)C(=O)N(c2cc(OC)ccc2OC)C1=O
inactive: [10] 86 % of control | [6] 90 % of control | [7] 86 % of control

CC(=O)CC(=O)Nc1cccc(Br)c1
inactive: [6] 98 % of control | [7] 101 % of control | [9] 101 % of control

CC1C2CCC(C2)C1N (configuration not stated)
inactive: endpoint: mean survival time, dose: 50.0 mg/kg/injection, schedule: Q01DX009 (ip), vehicle: saline 99 % of control | [11] 99 % of control | [12] 99 % of control

CN(C)C1C(CO)C(CO)C1(C)C (configuration not stated)
inactive: [13] 98 % of control | [1] 97 % of control | [2] 98 % of control | [8] 97 % of control

Cc1cnnc(N(C)N)c1
inactive: endpoint: mean survival time, dose: 12.5 mg/kg/injection, schedule: Q04DX002 (ip), vehicle: saline 107 % of control | endpoint: mean survival time, dose: 25.0 mg/kg/injection, schedule: Q04DX002 (ip), vehicle: saline 114 % of control | endpoint: mean survival time, dose: 50.0 mg/kg/injection, schedule: Q04DX002 (ip), vehicle: saline 96 % of control

COc1ccc(C2CCc3cc4c(cc3C2=O)OCO4)cc1OC (configuration not stated)
inactive: [3] 98 % of control | [4] 96 % of control | [5] 91 % of control

Nc1ccc(OCC(=O)O)cc1
inactive: [1] 101 % of control | [2] 98 % of control | [8] 110 % of control

COc1cc(N)nc(OC)n1
inactive: [3] 94 % of control | [4] 100 % of control | [5] 87 % of control

[Cl][Pt+2][Cl].[NH-]c1cc(F)ccc1F.[NH-]c1cc(F)ccc1F
inactive: endpoint: mean survival time, dose: 3.13 mg/kg/injection, schedule: Q04DX003 (ip), vehicle: distilled water + Tween-80 112 % of control | endpoint: mean survival time, dose: 6.25 mg/kg/injection, schedule: Q04DX003 (ip), vehicle: distilled water + Tween-80 110 % of control | endpoint: mean survival time, dose: 12.5 mg/kg/injection, schedule: Q04DX003 (ip), vehicle: distilled water + Tween-80 112 % of control | endpoint: mean survival time, dose: 25.0 mg/kg/injection, schedule: Q04DX003 (ip), vehicle: distilled water + Tween-80 120 % of control | endpoint: mean survival time, dose: 50.0 mg/kg/injection, schedule: Q04DX003 (ip), vehicle: distilled water + Tween-80 110 % of control

C/C(=C\C(=O)C(C)(C)C)C(C)(C)C
inactive: [1] 93 % of control | [2] 96 % of control | [8] 96 % of control

N/C(=N/O)NO
inactive: endpoint: median survival time, dose: 50.0 mg/kg/injection, schedule: Q01DX005 (ip), vehicle: saline 109 % of control | endpoint: median survival time, dose: 100.0 mg/kg/injection, schedule: Q01DX005 (ip), vehicle: saline 110 % of control and 112 % of control | endpoint: median survival time, dose: 200.0 mg/kg/injection, schedule: Q01DX005 (ip), vehicle: saline 120 % of control and 123 % of control

COC(=O)CCN(c1ccccc1)S(=O)(=O)c1ccc(C)cc1
inactive: [14] 98 % of control | [15] 100 % of control | endpoint: mean survival time, dose: 400.0 mg/kg/injection, schedule: Q01DX009 (ip), vehicle: Klucel (hydroxypropylcellulose) (HPC) 98 % of control

OCC1OC(n2ncc3cncnc32)C(O)C1O (configuration not stated)
inactive: endpoint: mean survival time, dose: 25.0 mg/kg/injection, schedule: Q01DX009 (ip), vehicle: other 94 % of control | endpoint: mean survival time, dose: 50.0 mg/kg/injection, schedule: Q01DX009 (ip), vehicle: other 97 % of control | endpoint: mean survival time, dose: 100.0 mg/kg/injection, schedule: Q01DX009 (ip), vehicle: other 90 % of control | endpoint: mean survival time, dose: 200.0 mg/kg/injection, schedule: Q01DX009 (ip), vehicle: other 97 % of control

CCNC(=S)NN
inactive: endpoint: mean survival time, dose: 12.5 mg/kg/injection, schedule: Q01DX009 (ip), vehicle: saline with Tween-80 100 % of control

CC1=CC(=O)OC(C)(C)C1
inactive: [11] 97 % of control | [12] 96 % of control | endpoint: mean survival time, dose: 400.0 mg/kg/injection, schedule: Q01DX009 (ip), vehicle: saline 114 % of control

O=c1c2ccccc2ncn1CCc1ccncc1
inactive: endpoint: mean survival time, dose: 100.0 mg/kg/injection, schedule: Q01DX001 (ip), vehicle: saline 104 % of control | endpoint: mean survival time, dose: 200.0 mg/kg/injection, schedule: Q01DX001 (ip), vehicle: saline 101 % of control | endpoint: mean survival time, dose: 400.0 mg/kg/injection, schedule: Q01DX001 (ip), vehicle: saline 103 % of control

CCCn1c2cc([N+](=O)[O-])ccc2c(=O)c2ccc3ccccc3c21
inactive: [10] 97 % of control | [6] 104 % of control | [7] 101 % of control

C1=C(CCc2c[nH]c3ccccc23)CCN(CCc2ccccc2)C1
inactive: endpoint: mean survival time, dose: 50.0 mg/kg/injection, schedule: Q01DX009 (ip), vehicle: Klucel (hydroxypropylcellulose) (HPC) 103 % of control | [14] 95 % of control | [15] 122 % of control

CCCCCCCCCCCCCCCCCC(=O)NN
inactive: [6] 93 % of control | [3] 91 % of control | [7] 104 % of control | [4] 96 % of control | endpoint: mean survival time, dose: 266.0 mg/kg/injection, schedule: Q01DX009 (ip), vehicle: saline with Tween-80 119 % of control | [5] 109 % of control | endpoint: mean survival time, dose: 600.0 mg/kg/injection, schedule: Q01DX009 (ip), vehicle: saline with Tween-80 119 % of control

Cc1ccc(S(=O)(=O)OCCOc2ccc(C(C)(C)CC(C)(C)C)cc2)cc1
inactive: endpoint: mean survival time, dose: 100.0 mg/kg/injection, schedule: Q01DX001 (ip), vehicle: Klucel (hydroxypropylcellulose) (HPC) 93 % of control | endpoint: mean survival time, dose: 200.0 mg/kg/injection, schedule: Q01DX001 (ip), vehicle: Klucel (hydroxypropylcellulose) (HPC) 98 % of control | endpoint: mean survival time, dose: 400.0 mg/kg/injection, schedule: Q01DX001 (ip), vehicle: Klucel (hydroxypropylcellulose) (HPC) 94 % of control

CCN(CC)c1nc(Cl)nc(NC(C)C)n1
inactive: [6] 100 % of control | [16] 103 % of control | [7] 101 % of control | [17] 100 % of control | [9] 94 % of control | [18] 103 % of control

NC(=O)c1ncc(-c2ccccc2)[nH]c1=O
inactive: [16] 93 % of control | [17] 98 % of control | [18] 102 % of control

O=C(O)COc1ccc(NC(=O)COc2ccccc2)cc1
inactive: endpoint: mean survival time, dose: 25.0 mg/kg/injection, schedule: Q01DX001 (ip), vehicle: saline with Tween-80 100 % of control | [13] 97 % of control | [1] 100 % of control

Nc1ccc2c(c1)C(=O)c1ccccc1C2=O
inactive: endpoint: mean survival time, dose: 25.0 mg/kg/injection, schedule: Q01DX009 (ip), vehicle: saline with Tween-80 98 % of control | [10] 98 % of control | [6] 101 % of control and 102 % of control | [7] 102 % of control | [9] 96 % of control

Cc1ccc(/C=N/NC(=O)CNC(=O)Nc2cccc(C(F)(F)F)c2)cc1
inactive: [10] 92 % of control | [6] 88 % of control | [7] 92 % of control

— PubChem BioAssay AID256 (DTP/NCI, 2004)
